The values that follow come from article PMC5030704 (Scientific Reports, 2016).

For this assay, the target named is T1, TNIK (Homo sapiens, UniProt Q9UKE5).
T1 construct: kinase domain, DNA-tagged, KINOMEscan commercial panel
Description: KINOMEscan competition binding (immobilised reference ligand, qPCR). To be noted: read-out: % Ctrl / 10 μM. From the text: KINOMEscan competition binding (immobilised reference ligand, qPCR) on TNIK
(Quantitative PCR measures a nucleic acid by following its amplification.)

T1 sequence (Q9UKE5 25-289 limits assumed): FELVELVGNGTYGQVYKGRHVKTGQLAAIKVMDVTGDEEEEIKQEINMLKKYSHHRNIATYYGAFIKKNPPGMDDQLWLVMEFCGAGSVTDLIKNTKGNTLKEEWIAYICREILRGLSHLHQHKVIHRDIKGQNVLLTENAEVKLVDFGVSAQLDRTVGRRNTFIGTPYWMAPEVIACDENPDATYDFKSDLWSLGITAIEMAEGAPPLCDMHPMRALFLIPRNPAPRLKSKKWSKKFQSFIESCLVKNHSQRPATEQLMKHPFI

Consider `CN1CC[C@H](c2c(O)cc(O)c3c(=O)cc(-c4ccccc4Cl)oc23)[C@H](O)C1` [Flavopiridol], for which the remaining binding at 10 µM was 33%.

Take `COC(=O)Nc1nc2cc(C(=O)c3ccccc3)ccc2[nH]1` [Mebendazole]: the remaining binding at 10 µM was 8.2%.

For `Cc1nc(Nc2ncc(C(=O)Nc3c(C)cccc3Cl)s2)cc(N2CCN(CCO)CC2)n1` [Dasatinib], the remaining binding at 10 µM amounted to 11%.
